# Where no end group is shown, it is not given here.
# How the values were obtained:
# [1] = system: tTG-null mouse dermal fibroblasts (MDF-TG−/−); assay: Anoikis quantification by TUNEL (flow cytometry and in situ microscopy); format: cell-based; settings: RGD peptide, ~15-hour, flow cytometry
# Experimental: (§1) For fluorochrome labelling of DNA strand breaks, 6×10^5 cells were seeded in duplicate in 9.6 cm^2-wells pre-coated with FN or tTG-FN in the presence or absence of RGD peptide. After 15-hour incubation at 37° C. in a 5% CO2 atmosphere, all cells (adhered and non-adhered) were collected, washed twice in PBS pH 7.4, resuspended at the final concentration of 1.2×10^7 cells/ml and fixed in suspension by addition of one volume of 4% (w/v) PFM in PBS, pH 7.4 for 1 hour at room temperature. […] The fluorescence intensity measured by flow cytometry using a Beckman Coulter EPICS XL. Cells were collected and data stored using the SYSTEM II software and analysed using the WinMDI2.8 software. DNA fragmentation was also detected by in situ analysis of nuclei following TUNEL using a confocal fluorescent microscope (Leica). […] For quantification, the Leica LCS software was used to acquire three random images per well for a total of 9 images per experimental sample using a fixed protocol (with constant PMT and section-depth setting). Data are expressed as mean number of apoptotic cells per well. […] Data are expressed as absorbance values at 492 nm after subtraction of values at […] given by the unmetabolised salt.
# [2] = system: tTG-null mouse dermal fibroblasts (MDF-TG−/−); assay: Cell viability (XTT) assay; format: cell-based; settings: RGD peptide ~15 hours
# Experimental: as §1
# Swiss 3T3 fibroblasts = assay: Cell adhesion assay (cell attachment and cell spreading), Swiss 3T3 fibroblasts; format: cell-based, mouse; settings: 100 μg/ml RGD peptide
# Experimental: To evaluate cell attachment and cell spreading exponentially growing cells were detached from substratum by trypsinisation (0.25% (v/v) trypsin in 5 mM EDTA), collected into medium containing a ˜7% (V/V) final concentration of FCS, washed twice with medium without serum and then plated (2×10^4cells/well) onto FN-coated 96-well plates with and without further immobilisation of tTG. After a maximum of 20-minute incubation (to minimise the effect of any endogenous secreted proteins) at 37° C. in a 5% CO2 atmosphere, cells were fixed in 3.7% (w/v) paraformaldehyde in PBS pH 7.4, permeabilised in 0.1% (v/v) Triton X-100 and stained with May Grunwald and Giemsa stain (Jones et al 1997, Verderio et al. 2000). In some cases cells were pre-treated for 15 hours with 1 mM cycloheximide before plating to rule out any effects of endogenous secreted adhesion molecules. Digital images of three non-overlapping fields covering the central portion of each well was captured using a video digital camera (Olympus DP10) and examined using the Image Analysis programme Scion Image (National Institute of Health, USA). […] The number of cell particles in each field was measured by thresholding and particle analysis setting a minimum particle size of 50 pixels. Spread cells were analysed and quantified by “density slicing” and particle analysis. […]
# HOB cells [3] = format: cell-based, human; settings: FN+RGD
# [4] = system: BRIN-BD11 (clonal β-cells); assay: Cell attachment and spreading of BRIN-BD11 cells; format: cell-based, rat; settings: excess RGD peptide
# Experimental: A novel insulin-secreting cell line (BRIN-BD11), which was established after electrofusion of RINm5F cells with New England Deaconess Hospital rat pancreatic islet cells, was grown confluent in RPMI 1640 media, supplemented with 10% FCS, 200 u/ml Penicillin, 200 ug/ml Streptomycin and L-Glutamine at 2 mM. The wells of microtitre plates were coated with FN (5 μg/ml) overnight at 4° C. The assigned wells were washed once with 50 mM Tris-HCl, pH 7.4 and then incubated with 20 μg/ml tTG solution (dissolved in PBS containing 2 mM EDTA pH 7.4) for 1 hour at 37° C. Meanwhile, exponentially growing cells were trypsinised and collected into medium containing approximately 7% (v/v) foetal calf serum. After a five-minute centrifugation at 300×g the cell pellet was washed twice in serum free medium to remove the traces of serum proteins. […] The cell attachment and spreading were quantified using the Scion image analysis programme, which is developed at the National Institute of Health (Washington DC, USA). The number of cells per image was assessed through threshold and particle analysis settings with a minimum particle size of 50 pixels. […] These were quantified by density slicing and particle analysis settings. […]
# HOB cells [5] = assay: Cell adhesion assay (cell attachment and cell spreading), HOB cells; format: cell-based, human
# Experimental: To evaluate cell attachment and cell spreading exponentially growing cells were detached from substratum by trypsinisation (0.25% (v/v) trypsin in 5 mM EDTA), collected into medium containing a ˜7% (V/V) final concentration of FCS, washed twice with medium without serum and then plated (2×10^4cells/well) onto FN-coated 96-well plates with and without further immobilisation of tTG. After a maximum of 20-minute incubation (to minimise the effect of any endogenous secreted proteins) at 37° C. in a 5% CO2 atmosphere, cells were fixed in 3.7% (w/v) paraformaldehyde in PBS pH 7.4, permeabilised in 0.1% (v/v) Triton X-100 and stained with May Grunwald and Giemsa stain (Jones et al 1997, Verderio et al. 2000). In some cases cells were pre-treated for 15 hours with 1 mM cycloheximide before plating to rule out any effects of endogenous secreted adhesion molecules. Digital images of three non-overlapping fields covering the central portion of each well was captured using a video digital camera (Olympus DP10) and examined using the Image Analysis programme Scion Image (National Institute of Health, USA). A total of at least nine images of separate fields per sample were examined for a total of at least 900 cells in the FN control. The number of cell particles in each field was measured by thresholding and particle analysis setting a minimum particle size of 50 pixels. Spread cells were analysed and quantified by “density slicing” and particle analysis.
# Adhesion of cells to FN was decreased by pre-incubation with RGD synthetic peptide (50 μg/ml, ˜75 ∝M, 100 μg/ml ˜150 μM, or 200 μg/ml ˜300 μM) or function blocking anti-integrin antibodies 40 μg/ml anti-β1 integrin (JB1A), 30 μg/ml anti-α5 integrin (P1D6). Detached cells (as described above) were pre-incubated in suspension (2×10^5cells/ml) in serum-free medium containing either RGD peptide or anti-integrins antibodies at 37° C. for 10 minutes in 5% CO2 atmosphere, and then seeded in the presence of the peptides.
# FAK = FAK tyrosine phosphorylation (western blot, phospho(Tyr397)-FAK); format: cell-based, human; settings: HOB; RGD peptide (100 μg/ml)
# Experimental: A cell suspension of 2×10^5 cells/ml was seeded in 9.6 cm^2-wells (6×10^5 cells/well) pre-coated with FN, tTG-FN or heat-inactivated 3% BSA (w/v) in PBS pH 7.4. After 30-minute incubation at 37° C. in a 5% CO2 atmosphere, the supernatant medium was removed, and non-adhered cells collected by spinning at 270 g for 5 minutes and then lysed in reducing Laemmli sample buffer at 95° C. for 5 minutes. The layer of adhered cells was scraped and similarly lysed (200 μl/well). The lysates of adhered and non-adherent cells were pooled together, fractionated (¼ aliquot) on 8% SDS-PAGE and then western blotted. Blots were incubated with a polyclonal rabbit anti-human phospho(Tyr 397)-FAK (1/2000), for ˜15 hours at +4° C. followed by anti-rabbit IgG peroxidase-conjugate (1/2000) for 2 hours at 21° C. Bands were detected by chemi-luminescence (Amersham), following manufacturer instructions. For re-probing with a control antibody, blots were treated with stripping buffer [50 mM Tris.HCl pH 6.7, 100 mM βME, 2% SDS (w/v)] for 30 minutes at 50° C. and then incubated with a monoclonal anti-tubulin antibody (1/2000), followed by peroxidase-conjugate anti-mouse IgGs/(1/1000).
substance,measurement,setting,value
"GRGDTP [RGD peptide, GRGDTP]",apoptotic cells among total fibroblasts grown on FN,[1],~24%
same,decrease of cell viability on FN versus control RAD peptide,[2],around 20%
same,cell attachment on FN,Swiss 3T3 fibroblasts,30-40 % of controls
same,cell spreading on FN,Swiss 3T3 fibroblasts,30-40 % of controls
same,actin stress fibre organisation on FN,HOB cells [3],actin was not organised into stress fibres
same,cell attachment and spreading on FN,[4],decreased
same,cell spreading on FN,HOB cells [5]; 100 μg/ml RGD peptide,10-50 % of control value
same,cell attachment on FN,HOB cells [5]; 50 and 100 μg/ml RGD peptides,30-50 % of control values on FN
same,inhibition of cell attachment on the 70 kd fragment,HOB cells [5]; RGD peptide (100 μg/ml),~40%
same,inhibition of cell spreading on the 70 kd fragment,HOB cells [5]; RGD peptide (100 μg/ml),~40%
same,tyrosine phosphorylation of FAK on FN,FAK,~25 % of level in control cells on

# — patent US20070077607A1, “Novel screening method” (priority 2003, published 2007)
